Results published in BigSolDB 2.1.

Cc1c(C(=O)O)cccc1[N+](=O)[O-]
solubility (mole fraction)
Conditions | 278.15 K | 283.15 K | 288.15 K | 293.15 K | 298.15 K | 303.15 K | 308.15 K | 313.15 K
in 1,4-dioxane | – | – | 0.0933 | 0.102 | 0.112 | 0.121 | 0.132 | 0.143
in DMF | 0.147 | 0.166 | 0.191 | 0.217 | 0.244 | 0.275 | 0.31 | 0.35
in acetonitrile | 0.00434 | 0.00523 | 0.00624 | 0.00737 | 0.00879 | 0.0104 | 0.0122 | 0.0143
in ethanol | 0.0152 | 0.0181 | 0.0216 | 0.0254 | 0.0297 | 0.0349 | 0.041 | 0.0478
in ethyl acetate | 0.0228 | 0.0258 | 0.0297 | 0.0336 | 0.0378 | 0.0426 | 0.0478 | 0.0538
in isobutanol | 0.00938 | 0.0114 | 0.014 | 0.0166 | 0.0201 | 0.024 | 0.028 | 0.033
in isopropanol | 0.0133 | 0.0161 | 0.019 | 0.0224 | 0.0266 | 0.0314 | 0.0362 | 0.0426
in isopropyl acetate | 0.0146 | 0.017 | 0.0196 | 0.023 | 0.027 | 0.031 | 0.0361 | 0.0413
in methanol | 0.0136 | 0.016 | 0.0193 | 0.0225 | 0.0264 | 0.0312 | 0.0367 | 0.0424
in methyl acetate | 0.0265 | 0.0302 | 0.0338 | 0.038 | 0.0428 | 0.0483 | 0.0539 | 0.06
in n-butanol | 0.0178 | 0.0213 | 0.0255 | 0.0308 | 0.0366 | 0.0434 | 0.0515 | 0.0608
in n-butyl acetate | 0.0165 | 0.0191 | 0.0227 | 0.0261 | 0.0296 | 0.034 | 0.039 | 0.0446
in n-propanol | 0.016 | 0.019 | 0.0227 | 0.027 | 0.032 | 0.0379 | 0.0441 | 0.0519
in n-propyl acetate | 0.0191 | 0.0221 | 0.0251 | 0.0293 | 0.0335 | 0.038 | 0.0432 | 0.049
